Assays:
[1] = target: T1, Protein-arginine deiminase type-4 (Homo sapiens, UniProt Q9UM07); assay: Inhibition of PAD4 by ABPP-based assay
[2] = target: T1, Protein-arginine deiminase type-4; assay: Inhibition of PAD4 measured by intercept plot of Lineweaver-Burke analyses
[3] = target: T1, Protein-arginine deiminase type-4; assay: Inhibition of PAD4 measured by slope plot of Lineweaver-Burke analyses

T1 sequence (Q9UM07 whole entry): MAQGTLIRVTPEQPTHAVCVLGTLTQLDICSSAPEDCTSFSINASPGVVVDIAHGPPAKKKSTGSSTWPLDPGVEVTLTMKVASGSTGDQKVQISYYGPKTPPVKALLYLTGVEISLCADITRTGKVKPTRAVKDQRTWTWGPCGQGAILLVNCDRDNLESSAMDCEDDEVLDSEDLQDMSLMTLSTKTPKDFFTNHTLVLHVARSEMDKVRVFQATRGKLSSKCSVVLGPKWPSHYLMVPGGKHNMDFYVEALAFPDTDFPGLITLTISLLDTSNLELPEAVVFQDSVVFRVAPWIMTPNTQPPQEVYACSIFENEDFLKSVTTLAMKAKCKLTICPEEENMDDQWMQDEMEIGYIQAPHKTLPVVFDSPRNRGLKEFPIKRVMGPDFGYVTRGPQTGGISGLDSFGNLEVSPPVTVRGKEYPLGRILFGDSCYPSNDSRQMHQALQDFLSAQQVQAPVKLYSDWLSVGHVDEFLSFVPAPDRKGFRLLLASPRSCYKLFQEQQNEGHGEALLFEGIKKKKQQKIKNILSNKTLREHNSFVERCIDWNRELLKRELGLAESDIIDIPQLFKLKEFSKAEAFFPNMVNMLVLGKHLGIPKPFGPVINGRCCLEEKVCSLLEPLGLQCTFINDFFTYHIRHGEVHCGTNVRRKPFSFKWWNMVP

| SMILES | IC50 [1] | Ki [2] | Ki [3] |
| --- | --- | --- | --- |
| Cc1cc(NS(=O)(=O)c2ccc(N)cc2)no1 [SULFAMETHOXAZOLE] | > 10000 µM | – | – |
| CN(C)[C@@H]1C(O)=C(C(N)=O)C(=O)[C@@]2(O)C(O)=C3C(=O)c4c(O)cccc4[C@@](C)(O)[C@H]3C[C@@H]12 [TETRACYCLINE] | 780 µM | – | – |
| Cc1oncc1C(=O)Nc1ccc(C(F)(F)F)cc1 [LEFLUNOMIDE] | 2400 µM | – | – |
| CC[C@H]1OC(=O)[C@H](C)[C@@H](O[C@H]2C[C@@](C)(OC)[C@@H](O)[C@H](C)O2)[C@H](C)[C@@H](O[C@@H]2O[C@H](C)C[C@H](N(C)C)[C@H]2O)[C@](C)(O)C[C@@H](C)CN(C)[C@H](C)[C@@H](O)[C@]1(C)O [AZITHROMYCIN] | > 10000 µM | – | – |
| CN(C)c1ccc(O)c2c1C[C@H]1CC3[C@H](N(C)C)C(O)=C(C(N)=O)C(=O)C3(O)C(O)=C1C2=O (single isomer, unassigned) [MINOCYCLINE] | 620 µM | 630 µM | 180 µM |
| Cn1cnc([N+](=O)[O-])c1Sc1ncnc2nc[nH]c12 [AZATHIOPRINE] | 8100 µM | – | – |
| CN(Cc1cnc2nc(N)nc(N)c2n1)c1ccc(C(=O)N[C@@H](CCC(=O)O)C(=O)O)cc1 [METHOTREXATE] | > 10000 µM | – | – |

From ChEMBL document CHEMBL1143172, “Profiling Protein Arginine Deiminase 4 (PAD4): a novel screen to identify PAD4 inhibitors” (Bioorg Med Chem, 2008)
